According to patent EP3915971A1, “PHENYL-S(O)N-PHENYLAMIDINES AND THE USE THEREOF AS FUNGICIDES” (Bayer Aktiengesellschaft, priority 2020, dated 2021):

Experiment: LogP measurement by HPLC on reversed phase columns (EEC directive 79/831 Annex V.A8)
Assay type: physicochemical
Protocol: Measurement of LogP values was performed according to EEC directive 79/831 Annex V.A8 by HPLC (High Performance Liquid Chromatography) on reversed phase columns with the following methods: • ^[a] LogP value is determined by measurement of LC-UV, in an acidic range, with 0.1% formic acid in water and acetonitrile as eluent (linear gradient from 10% acetonitrile to 95% acetonitrile). • ^[b] LogP value is determined by measurement of LC-UV, in a neutral range, with 0.001 molar ammonium acetate solution in water and acetonitrile as eluent (linear gradient from 10% acetonitrile to 95% acetonitrile). • ^[c] LogP value is determined by measurement of LC-UV, in an acidic range, with 0.1% phosphoric acid and acetonitrile as eluent (linear gradient from 10% acetonitrile to 95% acetonitrile).
If more than one LogP value is available within the same method, all the values are given and separated by "+". […]

[1] = reversed phase HPLC columns, method [a]: LC-UV, acidic range, 0.1% formic acid in water and acetonitrile as eluent (linear gradient 10% to 95% acetonitrile)

Row | chromatographic logP [1] | SMILES | further results
1 | 1.93 | CCN(C)C=Nc1cc(C)c(S(=O)(=O)c2ccccc2C)cc1Br [Example I-065, N'-[2-bromo-5-methyl-4-(2-methylphenyl)sulfonylphenyl]-N-ethyl-N-methylmethanimidamide] | 
2 | 2.44 | CCN(C)C=Nc1cc(C)c(Sc2ccccc2C#N)cc1C(F)(F)F [Example I-104, N'-[4-[(2-cyanophenyl)thio]-5-methyl-2-(trifluoromethyl)phenyl]-N-ethyl-N-methylmethanimidamide] | chromatographic logP (reversed phase HPLC columns, method [b]: LC-UV, neutral range, 0.001 molar ammonium acetate solution in water and acetonitrile as eluent (linear gradient 10% to 95% acetonitrile)): 4.64
3 | 1.26 | CCN(C)C=Nc1cc(Br)c([S+]([O-])c2ccccc2Cl)cc1C (centres unmarked) [Example I-036, N'-[5-bromo-4-(2-chlorophenyl)sulfinyl-2-methylphenyl]-N-ethyl-N-methylmethanimidamide] | 
4 | 1.58 | CCN(C)C=Nc1cc(C)c(S(=O)(=O)c2ccccc2C)cc1C(C)C [Example I-094, N-ethyl-N'-[2-isopropyl-5-methyl-4-(2-methylphenyl)sulfonylphenyl]-N-methylmethanimidamide] | 
5 | 1.03 | CCN(C)C=Nc1cc(Cl)c([S+]([O-])c2ccccc2F)cc1C (centres unmarked) [Example I-030, N'-[5-chloro-4-(2-fluorophenyl)sulfinyl-2-methylphenyl]-N-ethyl-N-methylmethanimidamide] | 
6 | 0.97 | CCN(C)C=Nc1cc(C)c([S+]([O-])c2ccccc2C)cc1Cl (centres unmarked) [Example I-012, N'-[2-chloro-5-methyl-4-(2-methylphenyl)sulfinylphenyl]-N-ethyl-N-methylmethanimidamide] | 
7 | 1.39 | CCN(C)C=Nc1cc(C)c(S(=O)(=O)c2ccccc2C)cc1C1CC1 [Example I-072, N'-[2-cyclopropyl-5-methyl-4-(2-methylphenyl)sulfonylphenyl]-N-ethyl-N-methylmethanimidamide] | 
8 |  | CCN(C)C=Nc1cc(C)c([S+]([O-])c2ccccc2F)cc1C (centres unmarked) [Example I-011, N-ethyl-N'-[4-(2-fluorophenyl)sul6nyl-2,5-dimethylphenyl]-N-methylmethanimidamide] | chromatographic logP (method [a]: LC-UV, acidic range, 0.1% formic acid in water and acetonitrile as eluent (linear gradient 10% to 95% acetonitrile)): 0.78
9 | 1.24 | CCN(C)C=Nc1cc(C)c(S(=O)(=O)c2ccccc2)cc1C1CC1 [Example I-095, N'-[4-(benzenesulfonyl)-2-cyclopropyl-5-methylphenyl]-N-ethyl-N-methylmethanimidamide] | 
10 | 1.5 | CCN(C)C=Nc1cc(Cl)c(S(=O)(=O)c2ccccc2C)cc1C [Example I-034, N'-[5-chloro-2-methyl-4-(2-methylphenyl)sulfonylphenyl]-N-ethyl-N-methylmethanimidamide] | 
11 | 3.76 | CCN(C)C=Nc1cc(C)c(S(=O)(=O)c2ccccc2C)cc1C(F)(F)F [Example I-092, N-ethyl-N-methyl-N'-[5-methyl-4-(2-methylphenyl)sulfonyl-2-(trifluoromethyl)phenyl]methanimidamide] | 
12 | 1.12 | CCN(C)C=Nc1cc(F)c([S+]([O-])c2ccccc2Cl)cc1C (centres unmarked) [Example I-033, N'-[4-(2-chlorophenyl)sulfinyl-5-fluoro-2-methylphenyl]-N-ethyl-N-methylmethanimidamide] | 
13 | 1.75 | CCN(C)C=Nc1cc(C)c(Sc2ccccc2)cc1Br [Example I-080, N'-(2-bromo-5-methyl-4-phenylsulfanylphenyl)-N-ethyl-N-methylmethanimidamide] | 
14 | 1.27 | CCN(C)C=Nc1cc(C#N)c([S+]([O-])c2ccccc2Cl)cc1C (centres unmarked) [Example I-061, N'-[4-(2-chlorophenyl)sulfinyl-5-cyano-2-methylphenyl]-N-ethyl-N-methylmethanimidamide] | 
15 | 1.28 | CCN(C)C=Nc1cc(C#N)c([S+]([O-])c2ccccc2C)cc1C (centres unmarked) [Example I-057, N'-[5-cyano-2-methyl-4-(2-methylphenyl)sulfinylphenyl]-N-ethyl-N-methylmethanimidamide] | 
16 | 1.18 | CCN(C)C=Nc1cc(C)c([S+]([O-])c2ccccc2C)cc1C(C)C (centres unmarked) [Example I-073, N-ethyl-N'-[2-isopropyl-5-methyl-4-(2-methylphenyl)sulfinylphenyl]-N-methylmethanimidamide] | 
17 | 1 | CCN(C)C=Nc1cc(C)c(S(=O)(=O)c2ccccc2C#N)cc1C [Example I-049, N'-[4-(2-cyanophenyl)sulfonyl-2,5-dimethylphenyl]-N-ethyl-N-methylmethanimidamide] | 
18 | 1.12 | CCN(C)C=Nc1cc(Br)c([S+]([O-])c2ccccc2C)cc1C (centres unmarked) [Example I-035, N'-[5-bromo-2-methyl-4-(2-methylphenyl)sulfinylphenyl]-N-ethyl-N-methylmethanimidamide] | 
19 | 0.97 | CCN(C)C=Nc1cc(C)c([S+]([O-])c2ccccc2Cl)cc1C (centres unmarked) [Example I-010, N'-[4-(2-chlorophenyl)sulfinyl-2,5-dimethylphenyl]-N-ethyl-N-methylmethanimidamide] | 

Row | chromatographic logP [1] | SMILES | further results
20 | 1.07 | CCN(C)C=Nc1cc(C)c(S(=O)(=O)c2ccccc2F)cc1C [Example I-017, N-ethyl-N'-[4-(2-fluorophenyl)sulfonyl-2,5-dimethylphenyl]-N-methylmethanimidamide] | 
21 | 1.45 | CCN(C)C=Nc1cc(F)c(S(=O)(=O)c2ccccc2Cl)cc1C [Example I-029, N'-[4-(2-chlorophenyl)sulfonyl-5-fluoro-2-methylphenyl]-N-ethyl-N-methylmethanimidamide] | 
22 | 1 | CCN(C)C=Nc1cc(F)c([S+]([O-])c2ccccc2C)cc1C (centres unmarked) [Example I-032, N-ethyl-N'-[5-fluoro-2-methyl-4-(2-methylphenyl)sulfinylphenyl]-N-methylmethanimidamide] | 
23 | 1 | CCc1cc([S+]([O-])c2ccccc2F)c(C)cc1N=CN(C)CC (centres unmarked) [Example I-076, N-ethyl-N'-[2-ethyl-4-(2-fluorophenyl)sulfinyl-5-methylphenyl]-N-methylmethanimidamide] | 
24 | 1.15 | CCN(C)C=Nc1cc(C)c([S+]([O-])c2ccccc2F)cc1C(C)C (centres unmarked) [Example I-086, N-ethyl-N'-[4-(2-fluorophenyl)sulfinyl-2-isopropyl-5-methylphenyl]-N-methylmethanimidamide] | 
25 | 1.24 | CCc1cc(S(=O)(=O)c2ccccc2F)c(C)cc1N=CN(C)CC [Example I-084, N-ethyl-N'-[2-ethyl-4-(2-fluorophenyl)sulfonyl-5-methylphenyl]-N-methylmethanimidamide] | 
26 | 1.69 | CCN(C)C=Nc1cc(C)c(S(=O)(=O)c2ccccc2C)cc1Cl [Example I-015, N'-[2-chloro-5-methyl-4-(2-methylphenyl)sulfonylphenyl]-N-ethyl-N-methylmethanimidamide] | 
27 | 1.15 | CCN(C)C=Nc1cc(C)c([S+]([O-])c2ccccc2Cl)cc1Cl (centres unmarked) [Example I-013, N'-[2-chloro-4-(2-chlorophenyl)sulfinyl-5-methylphenyl]-N-ethyl-N-methylmethanimidamide] | 
28 | 1.31 | CCN(C)C=Nc1cc(Cl)c(S(=O)(=O)c2ccccc2C#N)cc1C [Example I-053, N'-[5-chloro-4-(2-cyanophenyl)sulfonyl-2-methylphenyl]-N-ethyl-N-methylmethanimidamide] | 
29 | 1.23 | CCN(C)C=Nc1cc(Cl)c([S+]([O-])c2ccccc2Cl)cc1C (centres unmarked) [Example I-040, N'-[5-chloro-4-(2-chlorophenyl)sulfinyl-2-methylphenyl]-N-ethyl-N-methylmethanimidamide] | 
30 | 0.93 | CCN(C)C=Nc1cc(C)c([S+]([O-])c2ccccc2)cc1Br (centres unmarked) [Example I-079, N'-[4-(benzenesulfinyl)-2-bromo-5-methylphenyl]-N-ethyl-N-methylmethanimidamide] | 
31 | 1.07 | CCc1cc([S+]([O-])c2ccccc2C)c(C)cc1N=CN(C)CC (centres unmarked) [Example I-081, N-ethyl-N'-[2-ethyl-5-methyl-4-(2-methylphenyl)sulfinylphenyl]-N-methylmethanimidamide] | 
32 | 2.02 | CCN(C)C=Nc1cc(C)c(S(=O)(=O)c2ccccc2Cl)cc1Cl [Example I-018, N'-[2-chloro-4-(2-chlorophenyl)sulfonyl-5-methylphenyl]-N-ethyl-N-methylmethanimidamide] | 
33 | 1.53 | CCN(C)C=Nc1cc(C#N)c(S(=O)(=O)c2ccccc2)cc1C [Example I-055, N'-[4-(benzenesulfonyl)-5-cyano-2-methylphenyl]-N-ethyl-N-methylmethanimidamide] | 
34 | 1.1 | CCN(C)C=Nc1cc(Cl)c([S+]([O-])c2ccccc2C)cc1C (centres unmarked) [Example I-037, N'-[5-chloro-2-methyl-4-(2-methylphenyl)sulfinylphenyl]-N-ethyl-N-methylmethanimidamide] | 
35 | 1.07 | CCN(C)C=Nc1cc(C)c([S+]([O-])c2ccccc2C)cc1C1CC1 (centres unmarked) [Example I-074, N'-[2-cyclopropyl-5-methyl-4-(2-methylphenyl)sulfinylphenyl]-N-ethyl-N-methylmethanimidamide] | 
36 | 1 | CCN(C)C=Nc1cc(Br)c([S+]([O-])c2ccccc2)cc1C (centres unmarked) [Example I-038, N'-[4-(benzenesulfinyl)-5-bromo-2-methylphenyl]-N-ethyl-N-methylmethanimidamide] | 
37 | 1.84 | CCN(C)C=Nc1cc(C#N)c(S(=O)(=O)c2ccccc2Cl)cc1C [Example I-062, N'-[4-(2-chlorophenyl)sulfonyl-5-cyano-2-methylphenyl]-N-ethyl-N-methylmethanimidamide] | 
